Data from ChEMBL document CHEMBL6153119, “Target Identification with Live-Cell Photoaffinity Labeling and Mechanism of Action Elucidation of ARN23765, a Highly Potent CFTR Corrector” (J Med Chem, 2025).
Calls of active or inactive are those of the source. No cut-off for these calls is given here.

Columns and labels:
Type in all cases: cell-based
[1] = biological target: Cystic fibrosis transmembrane conductance regulator (Homo sapiens) (UniProt P13569); assay: Corrector activity at wild-type CFTR (unknown origin) expressed in human CFBE41o- cells assessed as restoration of CFTR level at 2.5 uM with UV light irradiation followed by CuAAC implementation by pull down assay
Cystic fibrosis transmembrane conductance regulator (Homo sapiens), sequence (P13569 whole entry, looked up, the tested form may be a part): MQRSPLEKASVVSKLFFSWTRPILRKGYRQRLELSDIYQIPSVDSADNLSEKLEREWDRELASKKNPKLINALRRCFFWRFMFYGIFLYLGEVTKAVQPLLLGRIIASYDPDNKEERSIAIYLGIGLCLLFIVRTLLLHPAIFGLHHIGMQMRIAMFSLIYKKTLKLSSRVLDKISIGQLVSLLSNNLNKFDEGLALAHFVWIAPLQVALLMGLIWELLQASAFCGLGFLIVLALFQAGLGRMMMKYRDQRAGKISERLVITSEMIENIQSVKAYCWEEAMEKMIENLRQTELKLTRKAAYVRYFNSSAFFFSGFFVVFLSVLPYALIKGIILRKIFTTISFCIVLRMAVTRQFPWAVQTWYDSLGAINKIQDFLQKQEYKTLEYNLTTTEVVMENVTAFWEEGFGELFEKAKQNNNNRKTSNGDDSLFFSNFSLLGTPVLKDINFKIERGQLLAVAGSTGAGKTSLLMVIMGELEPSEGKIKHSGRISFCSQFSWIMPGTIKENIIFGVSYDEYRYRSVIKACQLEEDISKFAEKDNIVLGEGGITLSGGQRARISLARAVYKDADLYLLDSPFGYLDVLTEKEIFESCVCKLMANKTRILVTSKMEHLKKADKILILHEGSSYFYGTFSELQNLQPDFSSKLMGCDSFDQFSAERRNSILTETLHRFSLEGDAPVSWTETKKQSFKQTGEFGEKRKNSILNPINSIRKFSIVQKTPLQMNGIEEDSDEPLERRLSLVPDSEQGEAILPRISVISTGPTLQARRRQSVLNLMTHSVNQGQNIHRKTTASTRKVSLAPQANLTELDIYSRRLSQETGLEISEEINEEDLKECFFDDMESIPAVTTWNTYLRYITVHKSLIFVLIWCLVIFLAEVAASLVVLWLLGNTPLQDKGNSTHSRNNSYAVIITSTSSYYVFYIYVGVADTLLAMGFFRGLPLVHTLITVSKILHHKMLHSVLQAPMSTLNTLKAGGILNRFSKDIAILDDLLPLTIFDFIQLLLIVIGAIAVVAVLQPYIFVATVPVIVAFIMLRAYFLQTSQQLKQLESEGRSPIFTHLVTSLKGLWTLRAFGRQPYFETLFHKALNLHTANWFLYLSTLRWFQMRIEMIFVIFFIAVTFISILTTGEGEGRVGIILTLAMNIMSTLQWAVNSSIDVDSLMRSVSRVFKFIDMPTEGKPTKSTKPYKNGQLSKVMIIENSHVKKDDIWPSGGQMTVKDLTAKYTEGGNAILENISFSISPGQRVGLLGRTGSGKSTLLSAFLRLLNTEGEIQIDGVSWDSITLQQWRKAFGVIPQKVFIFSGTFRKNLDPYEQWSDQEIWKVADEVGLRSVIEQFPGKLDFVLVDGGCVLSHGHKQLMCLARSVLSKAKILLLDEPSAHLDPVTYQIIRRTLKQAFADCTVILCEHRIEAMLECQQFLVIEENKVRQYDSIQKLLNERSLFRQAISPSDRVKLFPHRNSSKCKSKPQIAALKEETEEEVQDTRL

[2] = biological target: Cystic fibrosis transmembrane conductance regulator (Homo sapiens) (UniProt P13569); assay: Corrector activity at wild-type CFTR (unknown origin) expressed in human CFBE41o- cells assessed as restoration of CFTR level at 1 uM preincubated with ARN23765 followed by compound addition measured after 2 hrs by pull down assay
[3] = biological target: Cystic fibrosis transmembrane conductance regulator (Homo sapiens) (UniProt P13569); assay: Corrector activity at CFTR in human CFBE41o- cells harboring CFTR-/- assessed as restoration of CFTR level at 1 uM preincubated with ARN23765 followed by compound addition measured after 2 hrs by pull down assay
[4] = system: Cystic fibrosis transmembrane conductance regulator (Homo sapiens), P13569 [F508del]; assay: Corrector activity at mature CFTR F508del mutant (unknown origin) expressed in human CFBE41o- cells assessed as restoration of CFTR level at 27 degreeC at 1 uM preincubated with ARN23765 followed by compound addition measured after 2 hrs by pull down assay
Cystic fibrosis transmembrane conductance regulator (Homo sapiens), P13569 [F508del], sequence (P13569 as listed by the source): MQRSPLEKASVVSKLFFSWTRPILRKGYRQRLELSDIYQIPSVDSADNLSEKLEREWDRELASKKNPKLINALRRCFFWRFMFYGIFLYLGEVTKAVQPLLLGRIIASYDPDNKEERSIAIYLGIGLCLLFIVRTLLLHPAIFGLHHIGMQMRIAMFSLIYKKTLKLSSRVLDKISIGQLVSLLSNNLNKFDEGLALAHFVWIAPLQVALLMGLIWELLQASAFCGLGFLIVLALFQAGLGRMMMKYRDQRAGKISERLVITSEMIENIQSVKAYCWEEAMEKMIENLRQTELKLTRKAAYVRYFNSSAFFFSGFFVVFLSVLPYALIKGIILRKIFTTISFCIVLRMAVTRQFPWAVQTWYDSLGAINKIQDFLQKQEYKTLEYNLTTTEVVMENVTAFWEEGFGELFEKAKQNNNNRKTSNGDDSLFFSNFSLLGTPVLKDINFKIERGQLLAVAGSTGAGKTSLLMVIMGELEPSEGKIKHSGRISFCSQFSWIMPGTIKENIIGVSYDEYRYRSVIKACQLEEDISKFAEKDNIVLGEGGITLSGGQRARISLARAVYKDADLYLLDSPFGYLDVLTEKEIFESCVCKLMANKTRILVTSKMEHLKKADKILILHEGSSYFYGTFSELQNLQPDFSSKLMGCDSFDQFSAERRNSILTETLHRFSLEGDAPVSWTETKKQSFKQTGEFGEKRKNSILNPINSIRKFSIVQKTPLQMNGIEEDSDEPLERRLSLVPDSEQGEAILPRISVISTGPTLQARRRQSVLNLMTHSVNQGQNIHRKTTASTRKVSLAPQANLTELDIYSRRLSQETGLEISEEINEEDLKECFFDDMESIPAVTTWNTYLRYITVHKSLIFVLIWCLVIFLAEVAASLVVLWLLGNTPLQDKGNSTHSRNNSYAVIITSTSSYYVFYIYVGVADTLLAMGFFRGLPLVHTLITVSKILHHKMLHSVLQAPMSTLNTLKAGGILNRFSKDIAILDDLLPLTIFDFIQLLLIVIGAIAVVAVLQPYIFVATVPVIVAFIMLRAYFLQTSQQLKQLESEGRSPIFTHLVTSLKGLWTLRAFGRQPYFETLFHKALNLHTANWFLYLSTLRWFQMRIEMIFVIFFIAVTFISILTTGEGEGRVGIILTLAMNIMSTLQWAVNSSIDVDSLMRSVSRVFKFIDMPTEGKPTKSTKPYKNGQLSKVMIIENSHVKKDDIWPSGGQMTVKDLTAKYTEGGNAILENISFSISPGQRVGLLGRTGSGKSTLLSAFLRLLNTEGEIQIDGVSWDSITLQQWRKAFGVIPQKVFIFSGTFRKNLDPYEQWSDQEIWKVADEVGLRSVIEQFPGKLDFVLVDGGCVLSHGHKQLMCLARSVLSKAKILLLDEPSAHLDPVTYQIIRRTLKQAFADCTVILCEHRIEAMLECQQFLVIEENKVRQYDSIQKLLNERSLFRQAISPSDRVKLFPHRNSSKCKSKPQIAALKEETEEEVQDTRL

[5] = system: Cystic fibrosis transmembrane conductance regulator (Homo sapiens), P13569 [F508del]; assay: Corrector activity at immature CFTR F508del mutant (unknown origin) expressed in human CFBE41o- cells assessed as restoration of CFTR level at 27 degreeC at 1 uM preincubated with ARN23765 followed by compound addition measured after 2 hrs by pull down assay
[6] = system: Cystic fibrosis transmembrane conductance regulator (Homo sapiens), P13569 [F508del]; assay: Corrector activity at CFTR F508del mutant (unknown origin) expressed in human CFBE41o- cells assessed as restoration of CFTR level at 1 uM preincubated with ARN23765 followed by compound addition measured after 2 hrs by pull down assay
[7] = system: Cystic fibrosis transmembrane conductance regulator (Homo sapiens), P13569 [F508del]; assay: Corrector activity at CFTR F508del mutant (unknown origin) expressed in human CFBE41o- cells co-expressing HS-YFP assessed as maximum restoration of channel function incubated for 24 hrs by florescence based analysis (reference value: 3.0)
[8] = system: Cystic fibrosis transmembrane conductance regulator (Homo sapiens), P13569 [F508del/R1070W]; assay: Corrector activity at CFTR F508del/R1070W mutant (unknown origin) transfected in HEK293 cells assessed as increase in […] at 3 uM incubated for 24 hrs by Western blot analysis
Cystic fibrosis transmembrane conductance regulator (Homo sapiens), P13569 [F508del/R1070W], sequence (P13569 as listed by the source): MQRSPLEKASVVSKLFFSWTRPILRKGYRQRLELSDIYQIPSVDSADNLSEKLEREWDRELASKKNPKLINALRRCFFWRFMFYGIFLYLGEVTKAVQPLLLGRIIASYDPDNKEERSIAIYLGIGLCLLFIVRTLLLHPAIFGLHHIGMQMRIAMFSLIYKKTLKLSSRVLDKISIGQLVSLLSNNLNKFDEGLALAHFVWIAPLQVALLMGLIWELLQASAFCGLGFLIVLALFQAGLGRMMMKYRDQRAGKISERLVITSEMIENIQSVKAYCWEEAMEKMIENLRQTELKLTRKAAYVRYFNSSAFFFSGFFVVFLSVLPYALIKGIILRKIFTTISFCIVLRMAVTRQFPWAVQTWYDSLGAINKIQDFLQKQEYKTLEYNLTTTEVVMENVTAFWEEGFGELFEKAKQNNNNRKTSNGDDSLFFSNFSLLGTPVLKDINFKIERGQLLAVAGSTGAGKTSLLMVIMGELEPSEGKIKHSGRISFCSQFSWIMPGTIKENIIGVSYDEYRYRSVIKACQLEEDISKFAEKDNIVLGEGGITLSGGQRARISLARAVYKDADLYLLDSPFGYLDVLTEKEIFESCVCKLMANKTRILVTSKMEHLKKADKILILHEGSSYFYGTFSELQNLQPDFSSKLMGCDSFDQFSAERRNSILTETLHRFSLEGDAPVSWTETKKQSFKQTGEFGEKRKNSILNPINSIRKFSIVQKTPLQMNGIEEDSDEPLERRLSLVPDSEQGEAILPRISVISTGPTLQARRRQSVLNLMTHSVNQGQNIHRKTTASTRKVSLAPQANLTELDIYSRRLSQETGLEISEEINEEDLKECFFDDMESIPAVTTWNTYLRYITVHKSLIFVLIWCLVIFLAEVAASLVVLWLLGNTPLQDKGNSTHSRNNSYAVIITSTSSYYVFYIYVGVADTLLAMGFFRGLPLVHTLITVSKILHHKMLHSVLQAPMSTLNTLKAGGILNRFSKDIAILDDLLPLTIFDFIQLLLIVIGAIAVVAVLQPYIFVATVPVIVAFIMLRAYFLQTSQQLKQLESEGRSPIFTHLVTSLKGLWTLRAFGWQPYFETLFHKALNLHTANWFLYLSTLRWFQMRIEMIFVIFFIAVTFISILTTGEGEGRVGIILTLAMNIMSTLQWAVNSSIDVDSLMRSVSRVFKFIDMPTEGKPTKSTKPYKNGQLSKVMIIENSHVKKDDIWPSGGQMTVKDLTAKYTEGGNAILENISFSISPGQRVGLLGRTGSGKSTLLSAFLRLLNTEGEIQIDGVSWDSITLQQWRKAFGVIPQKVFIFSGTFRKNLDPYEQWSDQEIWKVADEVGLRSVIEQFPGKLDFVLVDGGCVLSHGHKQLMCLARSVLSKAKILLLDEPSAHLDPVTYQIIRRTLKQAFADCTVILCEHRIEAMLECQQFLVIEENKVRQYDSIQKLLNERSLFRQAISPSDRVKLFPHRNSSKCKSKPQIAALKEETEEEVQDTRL

[9] = system: Cystic fibrosis transmembrane conductance regulator (Homo sapiens), P13569 [F508del/R1070W]; assay: Corrector activity at CFTR F508del/R1070W mutant (unknown origin) transfected in HEK293 cells assessed as increase in protein maturation at 3 uM incubated for 24 hrs by Western blot analysis
[10] = biological target: Cystic fibrosis transmembrane conductance regulator (Homo sapiens) (UniProt P13569); assay: Corrector activity at CFTR (unknown origin) transfected in HEK293 cells harboring CFTR fragment containing del-R assessed as increase in expression of CFTR level at 10 nM incubated for 24 hrs by Western blot analysis
[11] = biological target: Cystic fibrosis transmembrane conductance regulator (Homo sapiens) (UniProt P13569); assay: Corrector activity at CFTR (unknown origin) transfected in HEK293 cells harboring CFTR fragment containing MSD1-NBD1 assessed as increase in expression of CFTR level at 10 nM incubated for 24 hrs by Western blot analysis
[12] = system: Cystic fibrosis transmembrane conductance regulator (Homo sapiens), P13569 [F508del/R1070W]; assay: Corrector activity at CFTR F508del/R1070W mutant (unknown origin) transfected in HEK293 cells assessed as increase in […] at 10 nM incubated for 24 hrs by Western blot analysis
[13] = biological target: Cystic fibrosis transmembrane conductance regulator (Homo sapiens) (UniProt P13569); assay: Corrector activity at CFTR (unknown origin) transfected in HEK293 cells harboring CFTR fragment containing MSD2-NBD2 assessed as increase in expression of CFTR level at 10 nM incubated for 24 hrs by Western blot analysis
[14] = system: Cystic fibrosis transmembrane conductance regulator (Homo sapiens), P13569 [F508del/K68I]; assay: Corrector activity at CFTR F508del/K68I mutant (unknown origin) transfected in HEK293 cells assessed as increase in protein maturation at 10 nM incubated for 24 hrs by Western blot analysis
[15] = biological target: Cystic fibrosis transmembrane conductance regulator (Homo sapiens) (UniProt P13569); assay: Corrector activity at CFTR (unknown origin) transfected in HEK293 cells harboring CFTR fragment containing MSD2 assessed as increase in expression of CFTR level at 10 nM incubated for 24 hrs by Western blot analysis
[16] = system: Cystic fibrosis transmembrane conductance regulator (Homo sapiens), P13569 [F508del/F81A]; assay: Corrector activity at CFTR F508del/F81A mutant (unknown origin) transfected in HEK293 cells assessed as increase in protein maturation at 10 nM incubated for 24 hrs by Western blot analysis
[17] = biological target: Cystic fibrosis transmembrane conductance regulator (Homo sapiens) (UniProt P13569); assay: Corrector activity at CFTR (unknown origin) transfected in HEK293 cells harboring CFTR fragment containing MSD1 assessed as increase in half life of CFTR MSD1 at 10 nM incubated for 24 hrs by Western blot analysis
[18] = system: Cystic fibrosis transmembrane conductance regulator (Homo sapiens), P13569 [R170G]; assay: Corrector activity at CFTR R170G mutant (unknown origin) transfected in HEK293 cells assessed as increase in protein maturation at 10 nM incubated for 24 hrs by Western blot analysis
[19] = biological target: Cystic fibrosis transmembrane conductance regulator (Homo sapiens) (UniProt P13569); assay: Corrector activity at CFTR (unknown origin) transfected in HEK293 cells harboring CFTR fragment containing MSD1-NBD1-R assessed as increase in expression of CFTR level at 10 nM incubated for 24 hrs by Western blot analysis
[20] = biological target: Cystic fibrosis transmembrane conductance regulator (Homo sapiens) (UniProt P13569); assay: Corrector activity at wild-type CFTR (unknown origin) expressed in human CFBE41o- cells assessed as restoration of CFTR level at 25 uM incubated for 30 mins by pull down assay
[21] = system: Cystic fibrosis transmembrane conductance regulator (Homo sapiens), P13569 [F508del/R74A]; assay: Corrector activity at CFTR F508del/R74A mutant (unknown origin) transfected in HEK293 cells assessed as increase in protein maturation at 10 nM incubated for 24 hrs by Western blot analysis
[22] = system: Cystic fibrosis transmembrane conductance regulator (Homo sapiens), P13569 [F508del/R1070W]; assay: Corrector activity at CFTR F508del/R1070W mutant (unknown origin) transfected in HEK293 cells assessed as increase in protein maturation at 10 nM incubated for 24 hrs by Western blot analysis
[23] = system: Cystic fibrosis transmembrane conductance regulator (Homo sapiens), P13569 [F508del/N71I]; assay: Corrector activity at CFTR F508del/N71I mutant (unknown origin) transfected in HEK293 cells assessed as increase in protein maturation at 10 nM incubated for 24 hrs by Western blot analysis
[24] = system: Cystic fibrosis transmembrane conductance regulator (Homo sapiens), P13569 [R170G]; assay: Corrector activity at CFTR R170G mutant (unknown origin) transfected in HEK293 cells assessed as increase in […] at 10 nM incubated for 24 hrs by Western blot analysis
[25] = biological target: Cystic fibrosis transmembrane conductance regulator (Homo sapiens) (UniProt P13569); assay: Corrector activity at CFTR (unknown origin) transfected in HEK293 cells harboring CFTR fragment containing MSD2 assessed as effect on CFTR MSD2 stability at 10 nM incubated for 24 hrs by Western blot analysis
[26] = system: Cystic fibrosis transmembrane conductance regulator (Homo sapiens), P13569 [F508del/W361A]; assay: Corrector activity at CFTR F508del/W361A mutant (unknown origin) transfected in HEK293 cells assessed as increase in protein maturation at 10 nM incubated for 24 hrs by Western blot analysis
HEK293 = assay: Corrector activity at CFTR F508del/A198Y mutant (unknown origin) transfected in HEK293 cells assessed as increase in protein maturation at 10 nM incubated for 24 hrs by Western blot analysis; settings: Homo sapiens
[27] = system: Cystic fibrosis transmembrane conductance regulator (Homo sapiens), P13569 [F508del/S364F]; assay: Corrector activity at CFTR F508del/S364F mutant (unknown origin) transfected in HEK293 cells assessed as increase in protein maturation at 10 nM incubated for 24 hrs by Western blot analysis
[28] = system: Cystic fibrosis transmembrane conductance regulator (Homo sapiens), P13569 [F508del]; assay: Corrector activity at CFTR F508del mutant (unknown origin) expressed in human CFBE41o- cells assessed as restoration of CFTR level at 25 uM incubated for 30 mins by pull down assay
[29] = biological target: Cystic fibrosis transmembrane conductance regulator (Homo sapiens) (UniProt P13569); assay: Corrector activity at CFTR (unknown origin) transfected in HEK293 cells harboring CFTR fragment containing MSD1 assessed as increase in expression of CFTR level at 10 nM incubated for 24 hrs by Western blot analysis

C#Cc1ccc(O[C@H]2CCCc3c(C(F)(F)F)nn(-c4cccc(C(=O)N(C)c5ccc(C6(C(F)(F)F)N=N6)cc5)c4)c32)cc1
Activity [1]: inactive

C[C@H]1NC(=O)N[C@H]1CCCCCC(=O)NCCOCCOCCOCCn1cc(-c2ccc(O[C@H]3CCCc4c(C(F)(F)F)nn(-c5cccc(C(=O)N(C)c6ccc(C7(C(F)(F)F)N=N7)cc6)c5)c43)cc2)nn1
Activity [2]: inactive | Activity [3]: inactive | Activity [4]: Active | Activity [5]: Active | Activity [6]: inactive

C[C@H]1NC(=O)N[C@H]1CCCCCC(=O)NCCOCCOCCOCCn1cc(CCC2(CCNC(=O)c3ccc(O[C@H]4CCCc5c(C(F)(F)F)nn(-c6cccc(C(=O)N(C)c7ccc8c(c7)OC(F)(F)O8)c6)c54)cc3)N=N2)nn1
Activity [2]: inactive | Activity [3]: inactive | Activity [4]: Active | Activity [5]: Active | Activity [7]: 2.8 | Activity [6]: inactive

CC(C)(CO)c1cc2cc(NC(=O)C3(c4ccc5c(c4)OC(F)(F)O5)CC3)c(F)cc2n1C[C@@H](O)CO
Activity [8]: Active | Activity [9]: Active

CN(C(=O)c1cccc(-n2nc(C(F)(F)F)c3c2[C@@H](Oc2ccc(C(=O)O)cc2)CCC3)c1)c1ccc2c(c1)OC(F)(F)O2
Activity [10]: Active | Activity [11]: Active | Activity [12]: Active | Activity [13]: inactive | Activity [14]: Active | Activity [15]: inactive | Activity [16]: Not active; Protein Maturation Markedly Reduced Or Abolished | Activity [17]: Active | Activity [18]: Active | Activity [19]: Active | Activity [20]: inactive | Activity [21]: Not active; Slightly Reduced Protein Maturation | Activity [22]: Active | Activity [23]: Active | Activity [24]: Active | Activity [25]: inactive | Activity [26]: Not active; Protein Maturation Markedly Reduced Or Abolished | Activity (HEK293): Not active; Protein Maturation Markedly Reduced Or Abolished | Activity [27]: Not active; Slightly Reduced Protein Maturation | Activity [28]: inactive | Activity [29]: Active
